These results are taken from patent US5770625A, “Butyryl-tyrosinyl spermine, analogs thereof and methods of preparing and using same” (priority 1994, dated 1998).

In experiment [1] the test system is postjunctional, quisqualate-sensitive glutamate receptors. The experiment is described as follows: Response of the retractor unguis muscle to bath-applied L-glutamate. Also on record: species or system Schistocerca gregaria.
Experiment [2] has as its system postsynaptic QUIS-R of locust leg muscle. Put plainly: Antagonism of neurally-evoked twitch contraction of locust retractor unguis nerve-muscle preparation. Further details: species or system Schistocerca gregaria. The note with it: toxin 1-10 μM. In outline: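 Adult female Schistocerca gregaria metathoracic retractor unguis nerve-muscle, saline pH 6.8, room temperature; nerve stimulated at 0.2 Hz, twitch amplitude recorded.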

Experiment [3] addresses NMDA receptors of rat brain. Put plainly: Inhibition of glutamate-induced [3H]MK-801 binding to synaptic membranes (filtration assay). The following applies: read-out: EC50 (the concentration that inhibits 50% of binding) of [3H]MK-801. The source says: Binding PhTX-433 to NMDA Receptor. The NMDA receptor is identified by its high affinity for the compound (+)-5-methyl-10,11-dihydro-5H-dibenzo[a,d]cyclohepten-5,10-imine maleate (MK-801). Th is compound is an anticonvulsant introduced by Merck Sharp & Dohme Co. and is a potent non-competitive antagonist of the NMDA receptor. Binding of [^3 H]MK-801 t o synaptic membranes from rat brain after thorough washing is extremely poor. However, the binding (measured by a filtration assay) is potentiated by glutamate in a dose-dependent manner and reaches maximal potentiation at 10 μM glutamate (26). The increase in binding of [^3 H]MK-801 resulting from addition of glutamate has been used as an index of NMDA recep tor binding.

For `CCCC(=O)N[C@@H](Cc1ccc(O)cc1)C(=O)NCCCCNCCCNCCCN` [Compound 2, PhTX-433], in experiment [1], the “effect on the response of the muscle to L-glutamate” value was “reduced the response of the retractor unguis muscle to L-glutamate”. In addition, the “effect on the neurally-evoked twitch contraction (in words)” value in experiment [2] is on record as “abolished the twitch”. Also, the EC50 in experiment [3] was 25 µM.
